The record followed here is patent publication US20080118573A1, “Use of Heavy Metals in the Treatment of Biofilms” (priority 2004, published 2008).

Holding throughout (type): cell-based
The subject of assay [1] is Escherichia coli JM109 planktonic and biofilm bacteria. The settings on record: LB+B1, 24 h exposure; for MIC: E. coli JM109; for MBEC: E. coli JM109 biofilm; for MBC: E. coli JM109 planktonic.
In assay [2] the test system is Staphylococcus aureus ATCC 29213 planktonic and biofilm bacteria. As to conditions: LB+B1, 24 h exposure; for MIC: S. aureus ATCC 29213; for MBEC: S. aureus ATCC 29213 biofilm; for MBC: S. aureus ATCC 29213 planktonic.
Assay [3] deals with Pseudomonas aeruginosa ATCC 27853 planktonic and biofilm bacteria. The settings on record: LB+B1, 24 h exposure; for MIC: P. aeruginosa ATCC 27853; for MBEC: P. aeruginosa ATCC 27853 biofilm; for MBC: P. aeruginosa ATCC 27853 planktonic.
The test system is the same in assay [4]. As to the kind of experiment: MBEC-HTP antibiotic susceptibility, P. aeruginosa. As to conditions: for MBEC: P. aeruginosa ATCC 27853 biofilm; for MIC / MBC: Pseudomonas aeruginosa. On the procedure: (§1) Luria-Bertani medium was chosen for two reasons: 1) its established use in studies of metal resistance, and 2) because of the use of rich media in NCCLS testing protocols for antimicrobial resistance. Antibiotic resistance assays were performed using cation-adjusted Mueller-Hinton broth (CA-MHB, BDH Inc.) and subcultures, MBC and MBEC bacterial counts were performed using trypticase soy agar (TSA, Difco).
(§2) The present study used a novel high throughput method for screening biofilm susceptibility to metal cations and oxyanions: the MBEC device (MBEC Bioproducts Inc., Edmonton, Alberta, Canada, http://www.mbec.ca). The MBEC high throughput (MBEC-HTP) assay system consists of a shallow trough into which a plastic lid with 96 pegs fits. This peg lid also fits over a standard 96-well microtitre plate which can subsequently be used to setup serial dilutions of antimicrobial compounds. The bottom half of the MBEC device is a trough that has shallow channels that direct flow of an inoculated suspension over the pegs on the lid.
(§3) The inoculum was standardized to a 1.0 McFarland standard and verified by viable counts. The 1.0 McFarland standard inoculum was diluted 30-fold with growth media, which served as the growth suspension to inoculate the MBECJ device.
(§4) P. aeruginosa was incubated for 9 h, S. aureus for 24 h and E. coli for 24 h to generate approximately equivalent biofilms of 6.0×10^6 cfu/peg. Following the incubation period, growth of biofilm and planktonic cultures in the MBECJ device were discerned and verified by viable cell counts.
(§5) Chloramphenicol (Sigma) was prepared in 50% ethanol and treated identically to the other antibiotics. 10% ethanol was added to the growth controls for chloramphenicol assays. […] Starting with the working solutions, serial two-fold dilutions were made in the wells of a 96-well plate (the challenge plate), leaving the first well of each row as a sterility control and the second as a growth control (i.e. no antibiotic).

Assay [5] concerns Pseudomonas aeruginosa biofilms. The assay can be described thus: Metal and antibiotic combination assay. The settings on record: for MBC / MIC: Pseudomonas aeruginosa; for MBC / MIC / MBEC: median of 4 replicates; for MBC: read-out: MBC; for MIC: read-out: MIC. As for the experimental part:
Cells were grown to a mean density of 6.0×10^6 cfu/peg in LB+B1 media.
• 1. […] All data are median values based on 4 replicates.

The subject of assay [6] is Escherichia coli JM109 planktonic and biofilm bacteria. As to the kind of experiment: MBEC-HTP antibiotic susceptibility, E. coli. As to conditions: for MBEC: E. coli JM109 biofilm. As for the experimental part:
as §1, §2, §3, §4, §5

Setting [7] is: antibiotic in combination with 200 μg/ml Cu^2+.
Setting [8] is: antibiotic or heavy metal alone, LB+B1.

Values after ≈ are worked out from the molar mass of the structure shown. Read-outs that look alike come from different tables or passages of the source.

Regarding Sodium hydrogen arsenate [AsO4^2−], in assay [1], the MIC is reported as 7.4 ± 0 mM, the MBEC is greater than 60 mM and the MBC is given as greater than 60 mM. In assay [2], this compound returned an MIC of 15 ± 0 mM, an MBEC greater than 59 mM and an MBC greater than 59 mM. In addition, in assay [3], the MIC is greater than 59 mM, the MBEC is given as greater than 59 mM and the MBC is recorded as greater than 59 mM.
Turning to `[Cl][Hg][Cl]` [Hg^2+, mercuric chloride], in assay [1], the MIC amounted to 0.07 ± 0.05 mM, the MBEC came out at 0.07 ± 0.05 mM and the MBC was 0.07 ± 0.05 mM. In assay [2], the MIC turned out to be 0.020 mM, the MBEC was found to be 0.080 ± 0 mM and the MBC is 0.080 ± 0 mM. In assay [3], this compound returned an MIC of 0.38 ± 0.14 mM, an MBEC of 0.43 ± 0.16 mM and an MBC of 0.53 ± 0.39 mM.
Take `O=S(=O)([O-])[O-].[Mn+2]` [Mn^2+, manganous sulfate]: in assay [1], the MIC is on record as 37 ± 0 mM, the MBEC is 199 ± 86 mM and the MBC came out at 199 ± 86 mM. In assay [2], this compound registered an MIC of 12 ± 5 mM, an MBEC greater than 149 mM and an MBC greater than 149 mM. In assay [3], the MIC is greater than 149 mM, the MBEC is given as greater than 149 mM and the MBC was greater than 149 mM.
In assay [1], `O=[Se](O)O` [SeO3^2−, selenous acid] gave an MIC of 8.1 ± 0 mM (≈ 1040 µg/mL), an MBEC of 8.1 ± 0 mM and an MBC of 8.1 ± 0 mM (≈ 1040 µg/mL). In assay [2], the MIC came to 16 ± 0 mM (≈ 2060 µg/mL), the MBEC was 16 ± 0 mM and the MBC is on record as 16 ± 0 mM (≈ 2060 µg/mL). For the same compound, in assay [3], the MIC was determined as 28 ± 8 mM (≈ 3610 µg/mL), the MBEC was 28 ± 8 mM and the MBC came to 28 ± 8 mM (≈ 3610 µg/mL).
In the case of `NCC[C@H](O)C(=O)N[C@@H]1C[C@H](N)[C@@H](O[C@H]2O[C@H](CN)[C@@H](O)[C@H](O)[C@H]2O)[C@H](O)[C@H]1O[C@H]1O[C@H](CO)[C@@H](O)[C@H](N)[C@H]1O` [Amikacin], the MBEC is greater than 512 µg/mL in assay [4] (CA-MHB, 24 h exposure); greater than 64 µg/mL in assay [5] (setting [7]); greater than 512 µg/mL in assay [5] (setting [8]). Besides, the MIC stood at 32 µg/mL (≈ 54.6 µM) in assay [4] (ATCC27853, P. aeruginosa ATCC 27853, CA-MHB, 24 h exposure, read-out: MIC); 0.125 µg/mL in assay [5] (setting [7]); 32 µg/mL in assay [5] (setting [8]). In addition, the MBC is 224 ± 64 µg/mL (≈ 383 µM) in assay [4] (ATCC27853, P. aeruginosa ATCC 27853 planktonic, CA-MHB, 24 h exposure, read-out: MBC); greater than 64 µg/mL in assay [5] (setting [7]); 256 µg/mL in assay [5] (setting [8]). Besides, the “MIC in the presence of Cu^2+, times less than the MIC for the antibiotic alone” value in assay [5] (200 μg/ml Cu^2+) is 256 times.
In assay [1], `O=[N+]([O-])[O-].[Ag+]` [Ag^+, silver nitrate] gave an MIC of 0.06 ± 0.02 mM, an MBEC of 0.07 ± 0.02 mM and an MBC of 0.09 ± 0.04 mM. In assay [2], this compound came in with an MIC of 0.30 ± 0 mM, an MBEC greater than 9.5 mM and an MBC of 9.5 ± 0 mM. In assay [3], this compound had an MIC of 0.30 ± 0 mM, an MBEC of 0.40 ± 0.17 mM and an MBC of 0.30 ± 0 mM.
In assay [1], `[Na+].[Na+].[O]=[W](=[O])([O-])[O-]` [WO4^2−, sodium tungstate] registered an MIC greater than 66 mM, an MBEC greater than 66 mM and an MBC greater than 66 mM. In assay [2], this compound displayed an MIC greater than 66 mM, an MBEC greater than 66 mM and an MBC greater than 66 mM. Further, in assay [3], the MIC is greater than 66 mM, the MBEC is greater than 66 mM and the MBC is reported as greater than 66 mM.
As to `O=[Te](=O)([O-])[O-].[K+].[K+]` [TeO4^2−, potassium tellurate], in assay [1], the MIC stood at 0.06 ± 0.02 mM, the MBEC was 0.42 ± 0.17 mM and the MBC is given as 0.42 ± 0.17 mM. In assay [2], this compound had an MIC of 0.67 ± 0 mM, an MBEC of 1.3 ± 0.7 mM and an MBC greater than 1.3 mM. In assay [3], this compound gave an MIC greater than 1.3 mM, an MBEC greater than 1.3 mM and an MBC greater than 1.3 mM.
As for `[Cl][Cd][Cl]` [Cd^2+, Cadmium chloride], the results for the MIC in assay [1], in assay [2] and in assay [3] were 1.1 ± 0 mM, 0.25 ± 0.07 mM and 4.6 ± 0 mM, respectively. In addition, the MBEC in assay [1] amounted to 2.3 ± 0 mM; in assay [2], 15.9 ± 4.6 mM; in assay [3] it was 36 ± 0 mM. Besides, the MBC in assay [1] is listed as 2.3 ± 0 mM; in assay [2] it was 18.2 ± 0 mM; in assay [3] it was 36 ± 0 mM.
As to `[Na+].[Na+].[O]=[Mo](=[O])([O-])[O-]` [MoO4^2−, sodium molybdate], the MIC in assay [1], in assay [2] and in assay [3] was greater than 102 mM each time. The MBEC in assay [1], in assay [2] and in assay [3] was greater than 102 mM each time. Further, the MBC in assay [1], in assay [2] and in assay [3] was greater than 102 mM in each case.
In assay [1], `[Cl][Sn][Cl]` [Sn^2+, stannous chloride] yielded an MBEC of 17 ± 0 mM and an MBC of 17 ± 0 mM. In assay [2], this compound showed an MIC of 8.6 ± 0 mM, an MBEC of 17.3 ± 0 mM and an MBC of 17.3 ± 0 mM. Moreover, in assay [3], the MIC was found to be 17 ± 0 mM, the MBEC was 17 ± 0 mM and the MBC was 22 ± 9 mM.
In assay [1], `O=[Te]([O-])[O-].[K+].[K+]` [TeO3^2−, potassium tellurite] registered an MIC of 0.006 mM, an MBEC of 0.014 mM and an MBC of 0.016 mM. Also, in assay [2], the MIC is 0.18 ± 0 mM, the MBEC worked out at 0.73 ± 0 mM and the MBC is recorded as greater than 0.73 mM. Also, in assay [3], the MIC was found to be 0.73 ± 0 mM, the MBEC was found to be 4.4 ± 1.7 mM and the MBC was determined as 5.1 ± 0 mM.
Regarding `CCN1CCN(C(=O)N[C@@H](C(=O)N[C@@H]2C(=O)N3[C@@H]2SC(C)(C)[C@@H]3C(=O)O)c2ccccc2)C(=O)C1=O` [Pipperacillin, Piperacillin], the MIC in assay [6] (E. coli JM109, CA-MHB, 24 h exposure) is 4 ± 0 µg/mL (≈ 7.73 µM). In assay [6] (CA-MHB, 24 h exposure), this compound came in with an MBEC of 32 ± 0 µg/mL. In assay [6] (E. coli JM109 planktonic, CA-MHB, 24 h exposure), this compound showed an MBC of 16 ± 0 µg/mL (≈ 30.9 µM).
Regarding `CC1(C)S[C@@H]2[C@H](NC(=O)[C@H](N)c3ccccc3)C(=O)N2[C@H]1C(=O)O` [Ampicillin], the MBEC in assay [6] (CA-MHB, 24 h exposure) is 1024 ± 0 µg/mL; in assay [4] (CA-MHB, 24 h exposure), greater than 512 µg/mL. For the same compound, the MBC is 64 µg/mL (≈ 183 µM) in assay [6] (Escherichia coli, 24 h) and greater than 512 µg/mL in assay [4] (ATCC27853, 24 h). The MIC in assay [6] (Escherichia coli, 24 h) is 4 µg/mL (≈ 11.4 µM); in assay [4] (ATCC27853, 24 h), greater than 512 µg/mL.
In assay [1], Sodium arsenite [AsO2^−] displayed an MIC of 2.4 ± 0 mM, an MBEC of 77 ± 0 mM and an MBC of 77 ± 0 mM. In assay [2], this compound came in with an MIC of 9.6 ± 0 mM, an MBEC greater than 77 mM and an MBC greater than 77 mM. In assay [3], the MIC is greater than 77 mM, the MBEC is greater than 77 mM and the MBC is on record as greater than 77 mM.
